Data on twelve compounds can be found in ChEMBL document CHEMBL2040764, “Bioactive briarane diterpenoids from the South China Sea gorgonian Dichotella gemmacea” (Bioorg Med Chem Lett, 2012).

Activity calls are given as the source filed them. The rule behind the calls is not given here.

For assay [1], the system named is Microbotryum violaceum. The assay is described as follows: Antifungal activity against Microbotryum violaceum at 2 mg/ml by agar diffusion test. In kind it is functional. To be noted: read-out: DIZ.
Assay [2] concerns Zymoseptoria tritici (Septoria tritici). The assay is described as follows: Antifungal activity against Septoria tritici at 2 mg/ml by agar diffusion test. To be noted: read-out: DIZ. Background: A growth-free zone around the sample is the usual read-out of agar diffusion tests.
In a further assay the test system is MG-63. The assay is described as follows: Cytotoxicity against human MG63 cells by MTT assay. It is filed as functional, cell-based.
The subject of the next assay is A549. Briefly: Cytotoxicity against human A549 cells by MTT assay. In kind it is functional, cell-based. In general terms: Formazan colour is commonly taken as a measure of viable cells.
The subject of assay [3] is Escherichia coli. Briefly: Antibacterial activity against Escherichia coli at 2 mg/ml by agar diffusion test. It is filed as functional. The note with it: read-out: DIZ.
In assay [4] the test system is Priestia megaterium. Briefly: Antibacterial activity against Bacillus megaterium at 2 mg/ml by agar diffusion test. It is filed as functional, organism-based.
Assay [5] deals with Microbotryum violaceum. Briefly: Antifungal activity against Microbotryum violaceum at 0.05 mg by agar diffusion test. The note with it: read-out: DIZ. In kind it is functional.
Assay [6] relates to Escherichia coli. Briefly: Antibacterial activity against Escherichia coli at 0.05 mg by agar diffusion test. It is filed as functional. The note with it: read-out: DIZ.
In assay [7] the test system is Priestia megaterium. The assay is described as follows: Antibacterial activity against Bacillus megaterium at 0.05 mg by agar diffusion test. The note with it: read-out: DIZ. It is filed as functional.
The test system of another assay is Zymoseptoria tritici. The assay is described as follows: Antifungal activity against Septoria tritici at 0.05 mg by agar diffusion test. To be noted: read-out: DIZ.

Usually IC50 stands for the concentration that gives 50% inhibition. A high value points to weaker potency. Regarding `C=C1[C@H](OC(=O)CC(C)C)C[C@H](OC(C)=O)[C@@]2(C)[C@@H](OC(C)=O)[C@@H](OC(=O)CC(C)C)[C@@H](OC(C)=O)[C@]3(CO3)[C@@H]2[C@H](OC(C)=O)[C@]2(O)[C@@H](C)C(=O)O[C@H]2[C@H]1Cl` (relative stereo), the figures for the zone of inhibition at 2000 µg/mL (in the assay with Microbotryum violaceum [1]; in assay [2]; in the assay with Escherichia coli [3]) were 13 mm, 17 mm and 17 mm, respectively. Besides, the IC50 in the assay on MG-63 worked out at 17.4 µM; with A549, 19.1 µM. In the assay with Priestia megaterium [4], the result was inactive.
In the case of `C=C1[C@H](Cl)[C@@H]2OC(=O)[C@H](C)[C@]23O[C@@H]1[C@H](OC(C)=O)[C@H](OC(C)=O)[C@@]1(C)[C@@H](OC(C)=O)CC[C@]2(CO2)[C@@H]1[C@@H]3OC(C)=O` [PRAELOLIDE], the zone of inhibition at 2000 µg/mL in the assay with Microbotryum violaceum [1] came out at 11 mm; in [2] it was 15 mm; in the assay on Escherichia coli [3], 18 mm. Further, the half-inhibitory concentration (IC50) in the assay on MG-63 and in the assay on A549 was greater than 50.1 µM in each case. Also, in the assay with Priestia megaterium [4], the result was inactive.
Take `C=C1[C@H](OC(C)=O)C[C@H](OC(C)=O)[C@@]2(C)[C@@H](OC(C)=O)C[C@@H](OC(C)=O)[C@]3(CO3)[C@@H]2[C@H](OC(C)=O)[C@]2(O)[C@@H](C)C(=O)O[C@H]2[C@H]1Cl` (relative stereo): the zone of inhibition at 2000 µg/mL in the assay with Microbotryum violaceum [1] was determined as 11 mm; in assay [2], 13 mm; in the assay with Escherichia coli [3], 20 mm. The figures for the IC50 with MG-63 and in the assay with A549 were 20.5 µM and less than 1.5 µM, respectively. In the assay on Priestia megaterium [4], the outcome was inactive.
Consider `C=C1[C@H]2O[C@]3([C@@H](C)C(=O)O[C@H]3[C@H]1Cl)[C@@H](OC(C)=O)[C@H]1[C@@]3(CO3)[C@H](OC(=O)CC(C)C)C[C@H](OC(C)=O)[C@]1(C)[C@@H](OC(C)=O)[C@H]2OC(C)=O` (relative stereo), for which the zone of inhibition at 2000 µg/mL in the assay on Microbotryum violaceum [1] is 11 mm; in assay [2] it was 13 mm; in the assay with Escherichia coli [3], 34 mm. The IC50 in the assay with MG-63 and with A549 was less than 0.3 µM each time. Moreover, the outcome with Priestia megaterium [4] was inactive.
With `CC(=O)N1CCN(c2ccc(OCC3COC(Cn4ccnc4)(c4ccc(Cl)cc4Cl)O3)cc2)CC1` (stereo unspecified) [KETOCONAZOLE], the zone of inhibition at 50 µg/disc was determined as 30 mm with Microbotryum violaceum [5], 18 mm with Escherichia coli [6], 18 mm with Priestia megaterium [7] and 25 mm in the assay on Zymoseptoria tritici.
In the case of `C=C1[C@H](OC(C)=O)C[C@H](OC(C)=O)[C@@]2(C)[C@@H](OC(C)=O)C[C@@H](OC(=O)CC(C)C)[C@]3(CO3)[C@@H]2[C@H](OC(C)=O)[C@]2(O)[C@@H](C)C(=O)O[C@H]2[C@H]1Cl` (relative stereo), the zone of inhibition at 2000 µg/mL in the assay with Microbotryum violaceum [1] amounted to 14 mm; in assay [2], 14 mm; with Escherichia coli [3], 19 mm. The IC50 with MG-63 is 18 µM; with A549 it was 16.9 µM. Also, the result in the assay with Priestia megaterium [4] was inactive.
`C=C1CC[C@H](OC(C)=O)[C@@]2(C)[C@@H](OC(C)=O)C[C@@H](OC(=O)CC(C)C)[C@]3(CO3)[C@@H]2[C@H](OC(C)=O)[C@]2(O)[C@@H](C)C(=O)O[C@H]2[C@H]1Cl` [JUNCENOLIDE J]: the zone of inhibition at 2000 µg/mL was 10 mm with Microbotryum violaceum [1], 12 mm in [2] and 11 mm with Escherichia coli [3]. Moreover, the IC50 in the assay with MG-63 and in the assay on A549 was greater than 46.7 µM each time. Besides, in the assay on Priestia megaterium [4], the outcome was inactive.
As for `C=C1[C@H]2O[C@]3([C@@H](C)C(=O)O[C@H]3[C@H]1Cl)[C@@H](OC(C)=O)[C@H]1[C@@]3(CO3)[C@H](OC(C)=O)C[C@H](OC(C)=O)[C@]1(C)[C@@H](OC(C)=O)[C@H]2OC(C)=O` (relative stereo), the results for the zone of inhibition at 2000 µg/mL (in the assay on Microbotryum violaceum [1]; in [2]; in the assay with Escherichia coli [3]) were 15 mm, 12 mm and 20 mm, respectively. The half-maximal inhibitory concentration (IC50) in the assay on MG-63 and with A549 was greater than 45.7 µM each time. In addition, in the assay on Priestia megaterium [4], the outcome was inactive.
`CC1(C)S[C@@H]2[C@H](NC(=O)Cc3ccccc3)C(=O)N2[C@H]1C(=O)O` [PENICILLIN G]: the zone of inhibition at 50 µg/disc is 14 mm with Microbotryum violaceum [5], 26 mm with Escherichia coli [6], 18 mm with Priestia megaterium [7] and 12 mm in the assay on Zymoseptoria tritici.
In the same order, the values of `CN[C@@H]1[C@H](O[C@H]2[C@H](O[C@H]3[C@H](O)[C@@H](O)[C@H](N=C(N)N)[C@@H](O)[C@@H]3N=C(N)N)O[C@@H](C)[C@]2(O)C=O)O[C@@H](CO)[C@H](O)[C@H]1O` [STREPTOMYCIN] are 16 mm, 18 mm, 11 mm and 11 mm.
Turning to `C=C1[C@H](OC(C)=O)C[C@H](OC(C)=O)[C@@]2(C)[C@@H](OC(=O)CC(C)C)C[C@@H](OC(C)=O)[C@]3(CO3)[C@@H]2[C@H](OC(C)=O)[C@]2(O)[C@@H](C)C(=O)O[C@H]2[C@H]1Cl` (relative stereo), the figures for the zone of inhibition at 2000 µg/mL (with Microbotryum violaceum [1]; in assay [2]; with Escherichia coli [3]) were 9.5 mm, 9.5 mm and 20 mm, respectively. Moreover, the IC50 is 15.1 µM with MG-63 and 18 µM in the assay on A549. Moreover, in the assay with Priestia megaterium [4], the result was inactive.
The compound `COc1cccc2c1C(=O)c1c(O)c3c(c(O)c1C2=O)C[C@@](O)(C(=O)CO)C[C@@H]3O[C@H]1C[C@H](N)[C@H](O)[C@H](C)O1` [DOXORUBICIN] registered an IC50 in the assay on MG-63 of 3.2 µM.
